This passage reports carcinogen call results from PubChem BioAssay AID1259411 (Chemical Carcinogenesis Research Information System (CCRIS), 2018).

For the data set, the system named is rodent carcinogenicity bioassays, tumor incidence. The experiment in a line: CCRIS carcinogenicity studies. Put shortly:
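Archive of carcinogenicity, mutagenicity, tumor promotion and tumor inhibition results drawn from journals, NCI reports and other sources, expert-reviewed; covers 1985-2011 and is no longer updated.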

The structures appear in SMILES notation. The source made the active and inactive calls. How the calls were made is not given here.

Regarding `N#Cc1c(Cl)c(Cl)c(Cl)c(C#N)c1Cl`, the carcinogen call is “inactive; negative” (Species: MOUSE, Strain/Sex: B6C3F1/FEMALE, Route: ORAL, Dose: 0, 3000, 6000 PPM IN DIET, TWA, Dose: 0, 3000, 6000 PPM IN DIET, TWA); “inactive; negative” (Species: MOUSE, Strain/Sex: B6C3F1/MALE, Route: ORAL, Dose: 0, 2688, 5375 PPM IN DIET, TWA, Dose: 0, 2688, 5375 PPM IN DIET, TWA); “active; positive (ca dpr describes as possible adverse effect; study details not given i” (Species: Mouse, Strain/Sex: CD-1/Female (60 per group), Route: Oral, Dose: 0, 750, 1,500, 3,000 ppm in diet for 2 yr, Dose: 0, 750, 1,500, 3,000 ppm in diet for 2 yr, Tumor Site: Type of Lesion: Forestomach: Squamous cell papillomas or carcinomas (0, 2, 6, 5), No dose response); “active; positive without dose response (ca dpr describes as possible adverse effect); st” (Species: Mouse, Strain/Sex: CD-1/Male (60 per group), Route: Oral, Dose: 0, 750, 1,500, 3,000 ppm in diet for 2 yr, Dose: 0, 750, 1,500, 3,000 ppm in diet for 2 yr, Tumor Site: Type of Lesion: Kidney: renal tubular adenoma or carcinoma (0, 6, 4, 4). Forestomach: Squamous cell papillomas or carcinomas (0, 2, 5, 2); “active; positive” (Species: RAT, Strain/Sex: OSBORNE-MENDEL/FEMALE, Route: ORAL, Dose: 0, 5063, 10126 PPM IN DIET, TWA, Dose: 0, 5063, 10126 PPM IN DIET, TWA, Tumor Site: Type of Lesion: KIDNEY: ADENOMA OR CARCINOMA (NOS) OR TUBULAR CELL ADENOMA OR TUBULAR CELL ADENOCARCINOMA); “active; positive” (Species: RAT, Strain/Sex: OSBORNE-MENDEL/MALE, Route: ORAL, Dose: 0, 5063, 10126 PPM IN DIET, TWA, Dose: 0, 5063, 10126 PPM IN DIET, TWA, Tumor Site: Type of Lesion: KIDNEY: CARCINOMA (NOS) OR TUBULAR CELL ADENOMA OR TUBULAR CELL ADENOCARCINOMA OR ADENOCARCINOMA OR PAPILLARY ADENOMA). The carcinogen call by setting is: (Species: Rat, Strain/Sex: Fischer 344/Female (55 per group), Route: Oral, Dose: 0, 1.8, 3.8, 15.2, 183 mg/kg/day in diet for 125 wks, Dose: 0, 1.8, 3.8, 15.2, 183 mg/kg/day in diet for 125 wks, Tumor Site: Type of Lesion: Kidney: Renal tubular adenomas and carcinomas (0, 0, 0, 0, 32 in 53-55 animals). Forestomach: Papillomas and carcinomas) “active; positive (study details not given in source)”; (Species: Rat, Strain/Sex: Fischer 344/Male (55 per group), Route: Oral, Dose: 0, 1.8, 3.8, 15.2, 183 mg/kg/day in diet for 99 wks (high dose) or 111 wk (all others), Dose: 0, 1.8, 3.8, 15.2, 183 mg/kg/day in diet for 99 wks (high dose) or 111 wk (all others), Tumor Site: Type of Lesion: Kidney: Renal tubular adenomas and carcinomas (1, 1, 1, 4, 23 in 53-55 animals) Forestomach: Papillomas and carcinomas () “active; positive (study details not given in source)”; (Species: Rat, Strain/Sex: Sprague-Dawley/Female (50 per group), Route: Oral, Dose: 0, 15, 60, 240, 1,200 mg/kg/day in diet for 2 yr, Dose: 0, 15, 60, 240, 1,200 mg/kg/day in diet for 2 yr, Tumor Site: Type of Lesion: Forestomach: Papillomas or carcinomas (0, 0, 0, 2, 1), Not significant) “inactive; negative (ca dpr describes as possible adverse effect; study details not given i”; (Species: Rat, Strain/Sex: Sprague-Dawley/Male (50 per group), Route: Oral, Dose: 0, 15, 60, 240, 1,200 mg/kg/day in diet for 2 yr, Dose: 0, 15, 60, 240, 1,200 mg/kg/day in diet for 2 yr, Tumor Site: Type of Lesion: Forestomach: Papillomas or carcinomas (0, 0, 0, 0, 3), Borderline significance) “active; positive at highest dose (ca dpr describes as possible adverse effect; study det”.

Turning to `COc1ccc(O)c(C(C)(C)C)c1`, for the setting “Species: HAMSTER, Strain/Sex: SYRIAN/MALE, Route: ORAL, Dose: 1% IN DIET FOR 24 WK (STUDY DURATION: 24 WK), Tumor Site: Type of Lesion: FORESTOMACH: PAPILLOMA”, the carcinogen call is “active; positive”.

Regarding `CCCN(CCC)N=O`, the carcinogen call by setting is: (Species: HAMSTER, Route: SUBCUTANEOUS, Tumor Site: Type of Lesion: RESPIRATORY TRACT, LUNG) “active; positive”; (Species: RAT, Route: ORAL, Tumor Site: Type of Lesion: LIVER) “active; positive”; (Species: RAT, Route: SUBCUTANEOUS, Tumor Site: Type of Lesion: NASAL CAVITY, LIVER) “active; positive”.

For `CCNC(=O)Nc1ncc([N+](=O)[O-])s1`, the carcinogen call is, setting by setting: (Species: MOUSE, Strain/Sex: B6C3F1/FEMALE, Route: ORAL, Dose: 0, 2500, 5000 PPM IN DIET FOR 94 WK (STUDY DURATION: 104 WK), Dose: 0, 2500, 5000 PPM IN DIET FOR 94 WK (STUDY DURATION: 104 WK), Tumor Site: Type of Lesion: LIVER: HEPATOCELLULAR ADENOMA OR CARCINOMA) “equivocal”; (Species: MOUSE, Strain/Sex: B6C3F1/MALE, Route: ORAL, Dose: 0, 2500, 5000 PPM IN DIET FOR 94 WK (STUDY DURATION: 104 WK), Dose: 0, 2500, 5000 PPM IN DIET FOR 94 WK (STUDY DURATION: 104 WK), Tumor Site: Type of Lesion: LIVER: HEPATOCELLULAR CARCINOMA OR ADENOMA) “active; positive”; (Species: RAT, Strain/Sex: F344/FEMALE, Route: ORAL, Dose: 0, 625, 1250 PPM IN DIET FOR 94 WK (STUDY DURATION: 104 WK), Dose: 0, 625, 1250 PPM IN DIET FOR 94 WK (STUDY DURATION: 104 WK), Tumor Site: Type of Lesion: INTEGUMENTARY SYSTEM (SKIN AND SUBCUTANEOUS TISSUE) AND MAMMARY GLAND: FIBROADENOMA OR CYSTADENOMA (NOS)) “active; positive”; (Species: RAT, Strain/Sex: F344/MALE, Route: ORAL, Dose: 0, 625, 1250 PPM IN DIET FOR 94 WK (STUDY DURATION: 104 WK), Dose: 0, 625, 1250 PPM IN DIET FOR 94 WK (STUDY DURATION: 104 WK)) “inactive; negative”.

For `CCCCOC(=O)[C@@H](C)Oc1ccc(Oc2ccc(C(F)(F)F)cn2)cc1`, the carcinogen call is, setting by setting: (Species: Hamster, Strain/Sex: Syrian golden/Female (51/Group), Route: Oral, Dose: 0, 200, 750, 3000 ppm of 91.6% fluazifop-o-butyl (0; 10.6; 40; 158 mg/kg/day) in diet for 81-83 wks, study duration 83 w, Dose: 0, 200, 750, 3000 ppm of 91.6% fluazifop-o-butyl (0; 10.6; 40; 158 mg/kg/day) in diet for 81-83 wks, study duration 83 w) “inactive; negative”; (Species: Hamster, Strain/Sex: Syrian golden/Male (51/Group), Route: Oral, Dose: 0, 200, 750, 3000 ppm of 91.6% fluazifop-o-butyl (0; 11.1; 42; 174 mg/kg/day) in diet for 81-83 wks, study duration 83 w, Dose: 0, 200, 750, 3000 ppm of 91.6% fluazifop-o-butyl (0; 11.1; 42; 174 mg/kg/day) in diet for 81-83 wks, study duration 83 w) “inactive; negative”; (Species: Rat, Strain/Sex: Wistar/Female (60/Group), Route: Oral, Dose: 0, 2, 10, 80, 250 ppm of 94.8% fluazifop-o-butyl (0; 0.11; 0.53; 4.3; 13.4 mg/kg/day) in diet for 2 yrs, study duration, Dose: 0, 2, 10, 80, 250 ppm of 94.8% fluazifop-o-butyl (0; 0.11; 0.53; 4.3; 13.4 mg/kg/day) in diet for 2 yrs, study duration) “inactive; negative”; (Species: Rat, Strain/Sex: Wistar/Male (60/Group), Route: Oral, Dose: 0, 2, 10, 80, 250 ppm of 94.8% fluazifop-o-butyl (0; 0.08; 0.41; 3.3; 10.2 mg/kg/day) in diet for 2 yrs, study duration, Dose: 0, 2, 10, 80, 250 ppm of 94.8% fluazifop-o-butyl (0; 0.08; 0.41; 3.3; 10.2 mg/kg/day) in diet for 2 yrs, study duration) “inactive; negative”.
